Assay results from paper PMC6152678, “In Vitro Comparative Study of the Inhibitory Effects of Mangiferin and Its Aglycone Norathyriol towards UDP-Glucuronosyl Transferase (UGT) Isoforms” (Molecules : A Journal of Synthetic Chemistry and Natural …, 2017).

What was measured:
UGT1A3 = target: T1, UGT1A3 (Homo sapiens, UniProt P35503); experiment: Inhibition of recombinant UGT-catalyzed 4-MU glucuronidation; assay type: biochemical; conditions: for inhibition at 120 min, 100 µM: human, pH 7.4, probe 4-methylumbelliferone (4-MU), 1200 μM, 100 μM compound, 4-MU probe substrate, negative = activation
T1 construct: purchased BD Gentest Corp. (Woburn, MA, USA); host or cells: baculovirus-infected insect cells
T1 sequence (P35503 29-534): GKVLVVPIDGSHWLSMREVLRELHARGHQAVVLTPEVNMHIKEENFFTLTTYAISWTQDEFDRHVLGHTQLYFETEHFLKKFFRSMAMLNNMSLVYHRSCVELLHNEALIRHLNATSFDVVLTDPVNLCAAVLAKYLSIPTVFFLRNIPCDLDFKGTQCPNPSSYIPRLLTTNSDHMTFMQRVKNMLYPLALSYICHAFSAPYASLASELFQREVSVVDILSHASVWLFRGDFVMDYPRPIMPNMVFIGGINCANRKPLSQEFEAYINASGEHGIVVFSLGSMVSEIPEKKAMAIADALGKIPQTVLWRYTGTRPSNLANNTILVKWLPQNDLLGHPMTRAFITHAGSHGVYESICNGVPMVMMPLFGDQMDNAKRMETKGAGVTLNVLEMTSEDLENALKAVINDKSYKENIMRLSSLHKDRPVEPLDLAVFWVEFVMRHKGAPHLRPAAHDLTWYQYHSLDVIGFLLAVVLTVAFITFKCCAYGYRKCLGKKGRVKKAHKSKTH
Description: (§1) Sigma-Aldrich (St Louis, MO, USA) provided the following constituents in the incubation mixture: 4-methylumbelliferone (4-MU), 4-methylumbelliferone-β-D-glucuronide (4-MUG), Tris-HCl, 7-hydroxycoumarin, and uridine-diphosphoglucuronic acid (UDPGA) (trisodium salt). All other compounds were of high-performance liquid chromatography (HPLC) grade or of the highest grade commercially available. For enzyme sources, recombinant UGT isoforms expressed in baculovirus-infected insect cells were purchased from BD Gentest Corp. (Woburn, MA, USA), including UGT1A1, 1A3, 1A6, 1A7, 1A8, 1A9, 1A10, 2B4, 2B7, 2B15, and 2B17.
(§2) 4-MU, a nonspecific probe substrate for all the UGT isoforms, was employed to investigate the inhibition of MEF and NIR towards the activity of UGT isoforms. The incubation and analytical methods have been previously described. […] MEF and NIR were dissolved in the DMSO to make a stock solution of 20 mM, and various concentrations of working solutions were prepared through dilution with DMSO. 4-MU was used as a non-selective substrate of UGTs. There was a 5-min pre-incubation step at 37 °C before the reaction was initiated by the addition of UDPGA. 4-MU and inhibitors were previously dissolved in DMSO, and the total concentration of DMSO was 1%. The reactions were continued at 37 °C for 120 min for UGT1A1, UGT1A3, UGT1A10, UGT2B4, UGT2B7, UGT2B15 and UGT2B17, 30 min for UGT1A6, UGT1A7, UGT1A8, and UGT1A9, respectively. Reactions were terminated by the addition of 100 μL acetonitrile with 7-hydroxycoumarin (100 μM) as internal standard. The incubation mixtures were then centrifuged at 12,000 r/min for 10 min. 2 μL supernatant was injected into the UPLC system for analysis. An ACQUITY UPLC System (Waters, Milford, MA, USA) equipped with UV detector was used to analyze the samples, and the separation of all the compounds were carried out using a ACQUITY UPLC® BEH C18 (2.1 × 100 mm, 1.7 μm Waters) at a flow rate of 0.2 mL/min and UV detector at 316 nm. The mobile phase was consisted of ultrapure water containing 0.5% formic acid (A) and acetonitrile (B). The following gradient condition was used: 0–3.5 min, 10–65% B; 3.5–4.0 min, 65% B; 4.0–9.0 min, 10% B. To calculate the standard curve 0.1–100 μM of 4-MUG was used through drawing the peak area ration of 4-MUG/internal standard towards the concentration range of 4-MUG. The curve was linear over this concentration range, with an r^2 value > 0.99.
(§3) The inhibition type and Kinetics were determined for the inhibition of NTR towards UGT1A3, UGT1A7 and UGT1A9. The glucuronidation velocity of 4-MU was determined at multiple concentrations of 4-MU and NTR. Dixon and Lineweaver–Burk plots were employed to determine the inhibition type, and the second plot of the slopes from the Lineweaver–Burk plot versus the compound concentrations was utilized to calculate the Ki value. The determination of IC50 was calculated using Probit analysis in SPSS11.5 (SPSS, Chicago, IL, USA). The Student’s t-test was adopted at a significance level of p < 0.05 to determine statistically significant differences among experimental groups.

UGT1A1 = target: T2, UGT1A1 (Homo sapiens, UniProt P22309); experiment: as above; assay type: biochemical; conditions: pH 7.4, probe 4-methylumbelliferone (4-MU), 110 μM, 100 μM compound, 4-MU probe substrate, negative = activation
T2 construct: purchased BD Gentest Corp. (Woburn, MA, USA); host or cells: baculovirus-infected insect cells
T2 sequence (P22309 26-533): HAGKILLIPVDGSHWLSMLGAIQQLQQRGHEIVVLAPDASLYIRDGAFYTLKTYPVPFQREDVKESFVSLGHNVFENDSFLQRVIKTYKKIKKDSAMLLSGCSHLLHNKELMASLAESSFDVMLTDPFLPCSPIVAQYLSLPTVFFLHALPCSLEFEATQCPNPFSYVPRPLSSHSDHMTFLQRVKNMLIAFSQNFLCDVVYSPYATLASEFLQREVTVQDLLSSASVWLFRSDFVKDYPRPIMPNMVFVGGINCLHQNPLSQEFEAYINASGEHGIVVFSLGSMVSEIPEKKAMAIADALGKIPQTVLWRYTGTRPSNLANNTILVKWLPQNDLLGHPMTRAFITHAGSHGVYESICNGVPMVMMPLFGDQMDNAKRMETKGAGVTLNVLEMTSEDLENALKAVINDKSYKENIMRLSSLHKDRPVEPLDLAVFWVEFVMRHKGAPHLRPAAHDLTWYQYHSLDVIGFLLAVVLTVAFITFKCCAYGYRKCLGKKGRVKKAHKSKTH
Description: as §1, §2, §3

SMILES	IC50 (UGT1A3; 4-MU glucuronidation, Probit analysis, read-out: IC50 towards UGT1A3) [µM]	inhibition type towards UGT1A3 (UGT1A3; Dixon plot and Lineweaver-Burk plot)	inhibition at 120 min, 100 µM (UGT1A3) [%]	Ki (UGT1A3; second plot of Lineweaver-Burk slopes, read-out: inhibition constant (Ki) towards UGT1A3) [µM]	inhibition at 120 min, 100 µM (UGT1A1) [%]
O=c1c2cc(O)c(O)cc2oc2cc(O)cc(O)c12 [NTR, 1,3,6,7-tetrahydroxyxanthone]	8.2	competitively inhibited	87.6	1.6	50.8
O=c1c2cc(O)c(O)cc2oc2cc(O)c([C@@H]3O[C@H](CO)[C@@H](O)[C@H](O)[C@H]3O)c(O)c12 [MGF, 1,3,6,7-tetrahydroxyxanthone-C-2-β-D-glucoside]	–	–	-16	–	14.5
